Paper PMC9696794, “Synthesis and Antimicrobial Activity of Short Analogues of the Marine Antimicrobial Peptide Turgencin A: Effects of SAR Optimizations, Cys-Cys Cyclization and Lipopeptide Modifications” (International Journal of Molecular Sciences, 2022)
Where a SMILES comes first, the peptide text is derived from it. The star is where a group is joined. Lauroyl = CCCCCCCCCCCC(=O)*; Decanoyl = CCCCCCCCCC(=O)*; Octanoyl = CCCCCCCC(=O)*

Experiments:
[1] = system: B. subtilis (Bs, ATCC 23857); assay: microbe, parasite or virus in culture; assay type: cell-based, Bacillus subtilis; settings: ATCC 23857, 24 h
Procedure: (§1) All cyclic and linear peptides were screened for antibacterial activity against four Gram-positive strains: B. subtilis (Bs, ATCC 23857), C. glutamicum (Cg, ATCC 13032), S. aureus (Sa, ATCC 9144) and S. epidermidis RP62A (Se, ATCC 35984), and two Gram-negative strains: E. coli (Ec, ATCC 25922) and P. aeruginosa (Pa, ATCC 27853). The activity was assessed using a broth microdilution assay according to a modified CLSI-based method. Briefly, overnight bacterial cultures were grown in Mueller–Hinton (MH) broth medium (Difco Laboratories, Detroit, MI, USA) for 2 h at room temperature. The optical density (OD600) was measured, and the bacterial suspensions were adjusted to 2.5–3 × 10^4 CFU/mL in MH medium. The bacterial suspension (50 µL) was distributed in 96-well plates (Nunc, Roskilde, Denmark) preloaded with two-fold dilution series (256 to 1 µg/mL) of peptide solutions (50 µL), giving a final well volume of 100 µL. The microplates were incubated in an EnVision 2103 microplate reader (PerkinElmer, Llantrisant, UK) at 35 °C, with OD595 recorded every hour for 24 h. MIC was defined as the lowest concentration of peptides showing an optical density less than 10% of the negative (growth) control, consisting of bacterial suspension and water. Polymyxin B sulfate (Sigma-Aldrich, St. Louis, MO, USA) and chlorhexidine acetate (CHX, Fresenius Kabi, Halden, Norway), both with concentrations ranging from 12.5 to 0.09 μg/mL, served as positive (growth inhibition) controls. All peptides were tested in triplicate.

[2] = system: C. glutamicum (Cg, ATCC 13032); assay: microbe, parasite or virus in culture; assay type: cell-based, Corynebacterium glutamicum; settings: ATCC 13032, 24 h
Procedure: as §1

[3] = system: S. aureus (Sa, ATCC 9144); assay: microbe, parasite or virus in culture; assay type: cell-based, Staphylococcus aureus; settings: ATCC 9144, 24 h
Procedure: as §1

[4] = system: S. epidermidis RP62A (Se, ATCC 35984); assay: microbe, parasite or virus in culture; assay type: cell-based, Staphylococcus epidermidis; settings: ATCC 35984, 24 h
Procedure: as §1

[5] = system: E. coli (Ec, ATCC 25922); assay: microbe, parasite or virus in culture; assay type: cell-based, Escherichia coli; settings: ATCC 25922, 24 h
Procedure: as §1

[6] = system: P. aeruginosa (Pa, ATCC 27853); assay: microbe, parasite or virus in culture; assay type: cell-based, Pseudomonas aeruginosa; settings: ATCC 27853, 24 h
Procedure: as §1

[7] = system: all bacterial strains; assay: Antibacterial MIC assay, all bacterial strains together (range or geometric mean); assay type: cell-based; settings: for GM (geometric mean of the MIC values against all bacterial strains): Table 1, six bacterial strains; for GM of MIC Tot. bact.: Table S3, all bacterial test strains, MIC >256 set to 256
Procedure: The selectivity index (SI) of the peptides towards bacteria over eukaryotic cells was calculated using the geometric mean (GM) of the MIC values against all bacterial test strains, according to the method by Orlov et al.. The SI for each peptide was determined as the ratio of the RBC-EC50 value by the corresponding GM value. Larger SI values indicate greater selectivity for microbial cells. […] In general, the SI was higher against the Gram-positive bacteral strains than the Gram-negative strains. (Table S3). Overall, peptides displaying EC50 < 100 µg/mL were considered too haemolytic to be of interest for further exploration.
as §1

[8] = system: A. pullulans (Ap); assay: microbe, parasite or virus in culture; assay type: cell-based, Aurobasidium pollulans; settings: 48 h
Procedure: (§2) The synthesized peptides were screened for antifungal activity against the molds A. pullulans (Ap) and Rhodotorula sp. (Rh) (both obtained from Professor Arne Tronsmo, The Norwegian University of Life Sciences, Ås, Norway) and the yeast C. albicans (Ca, ATCC 10231) as previously described. In short, fungal spores were grown in potato dextrose broth media (Difco) containing 2% D(+)-glucose (Merck, Darmstadt, Germany) at 25–30 °C while shaking at 200 rpm overnight. The cultures were diluted with a dextrose media containing glucose to a concentration of approx. 4 × 10^5 spores/mL. Aliquots of the cultures (50 µL) were transferred to 96 well microtiter plates preloaded with the synthetic peptides (50 µL) in two-fold serial dilutions (256 to 1 µg/mL). Polymyxin B and CHX (both with concentrations ranging from 12.5 to 0.09 μg/mL) served as positive antibiotic controls. The microtiter plates containing the fungal spores and the test peptides were incubated at room temperature for 48 h and OD600 was recorded using a Synergy H1 Hybrid microplate reader system (BioTek, Winooski, VT, USA). MIC was defined as the lowest peptide concentration showing an optical density less than 10% of the negative (growth) control. All experiments were performed in triplicate.

[9] = system: C. albicans (Ca, ATCC 10231); assay: microbe, parasite or virus in culture; assay type: cell-based, Candida albicans; settings: ATCC 10231, 48 h
Procedure: as §2

[10] = system: Rhodotorula sp. (Rh); assay: microbe, parasite or virus in culture; assay type: cell-based; settings: 48 h
Procedure: as §2

[11] = system: human red blood cells (RBC); assay: Haemolytic activity assay; assay type: cell-based; settings: for Selectivity index (SI) G+: EC50/GM of Gram-positive strains; for SI (selectivity index = EC50/GM): haemolytic EC50 over GM of MIC against all bacterial strains, Table 1; for RBC Tox. (EC50), haemolytic activity: human RBC, 1 h, 37 °C, concentration giving 50% haemolysis
Procedure: The synthetized lipopeptides were screened for haemolytic activity against human red blood cells (RBC), in concentrations ranging from 500 to 3.9 μM, following a previously described protocol. In brief, haemolysis was determined using a heparinizied (10 IU/mL) fraction of freshly drawn human blood. A second fraction of blood, which was collected in test tubes containing ethylenediaminetetraacetic acid (EDTA, Vacutest, KIMA, Arzergrande, Italy), was used for determination of the hematocrit (hct). Plasma was removed from heparinized blood by washing three times with prewarmed phosphate-buffered saline (PBS) before being adjusted to a hematocrit of 4%. Peptides dissolved in dimethyl sulfoxide (DMSO) were further diluted with PBS to a final DMSO content of ≤1%. Triton X-100 (Sigma-Aldrich, St. Louis, MO, USA), used at a final concentration of 0.1%, served as a positive control for 100% haemolysis, whereas 1% DMSO in PBS buffer served as a negative control where no toxicity was detected. Duplicates of test solutions and erythrocytes, with 1% hct final concentration, were prepared in a 96-well polypropylene V-bottom plate (Nunc, Fischer scientific, Oslo, Norway). They were incubated under agitation at 37 °C and 800 rpm for 1 h. After centrifugation (5 min, 3000× g), 100 µL from each well were transferred to a flat-bottomed 96-well plate and absorbance was measured at 545 nm with a microplate reader (SpectraMax 190, Molecular Devices, San Jose, CA, USA). After subtracting PBS background, the percentage of haemolysis was calculated as the ratio of the absorbance in the peptide-treated and surfactant-treated samples. Three independent experiments were performed, and EC50 (the concentration giving 50% haemolysis) values are presented as averages.

[12] = system: Gram-positive bacterial strains; settings: Table S3; MIC >256 set to 256
Procedure: as §1

[13] = system: Gram-negative bacterial strains (E. coli and P. aeruginosa); assay: Antibacterial MIC assay, Gram-negative strains together (range or geometric mean); assay type: cell-based; settings: Table S3; MIC >256 set to 256
Procedure: as §1

[14] = system: fungi (A. pullulans, C. albicans, Rhodotorula sp.); assay: Antifungal MIC assay, all fungi together (range or geometric mean); assay type: cell-based; settings: Table S3; MIC >128 set to 128
Procedure: as §2

[15] = Table S3, highest tested concentration used where EC50 above it

SMILES | Antimicrobial Activity (MIC) Gram + Bs [1] [µg/mL] | Antimicrobial Activity (MIC) Gram + Cg [2] [µg/mL] | Antimicrobial Activity (MIC) Gram + Sa [3] [µg/mL] | Antimicrobial Activity (MIC) Gram + Se [4] [µg/mL] | Antimicrobial Activity (MIC) Gram − Ec [5] [µg/mL] | Antimicrobial Activity (MIC) Gram − Pa [6] [µg/mL] | GM (geometric mean of the MIC values against all bacterial strains) [7] [µg/mL] | GM of MIC Tot. bact. [7] [µg/mL] | Antimicrobial Activity (MIC) Fungi Ap [8] [µg/mL] | Antimicrobial Activity (MIC) Fungi Ca [9] [µg/mL] | Antimicrobial Activity (MIC) Fungi Rh [10] [µg/mL] | Selectivity index (SI) G- ([11]; Table S3, EC50/GM of Gram-negative strains, highest tested concentration used where EC50 above it) | Selectivity index (SI) G+ [11, 15] | Selectivity index (SI) Fungi ([11]; Table S3, EC50/GM of fungi, highest tested concentration used where EC50 above it) | SI (selectivity index = EC50/GM) [11] | RBC Tox. (EC50), haemolytic activity [11] [µg/mL] | GM of MIC G+ [12] [µg/mL] | GM of MIC G- [13] [µg/mL] | GM of MIC Fungi [14] [µg/mL] | Selectivity index (SI) Tot. bact. ([11]; Table S3, EC50/GM of all bacterial strains, highest tested concentration used where EC50 above it)
CCCCCCCC(=O)N[C@@H](CS)C(=O)NCC(=O)N[C@@H](CCCCN)C(=O)N[C@@H](CCCCN)C(=O)N1CCC[C@H]1C(=O)NCC(=O)NCC(=O)N[C@@H](Cc1c[nH]c2ccccc12)C(=O)N[C@@H](CCCCN)C(=O)N[C@@H](CS)C(=O)N[C@@H](CCCCN)C(=O)N[C@@H](CC(C)C)C(N)=O [Peptide C8-Turg-1, C8- CGKKPGGWKC KL-NH2] (Octanoyl-CGKKPGGWKCKL-NH2) | 8 | 4 | 128 | 32 | 32 | 128 | 29 | 29 | 32 | 128 | 16 | > 15 | > 50 | > 23 | >33 | >943 | 19 | 64 | 40 | –
CCCCCCCCCC(=O)N[C@@H](CS)C(=O)NCC(=O)N[C@@H](CCCNC(=N)N)C(=O)N[C@@H](CCCNC(=N)N)C(=O)N[C@@H](Cc1c[nH]c2ccccc12)C(=O)NCC(=O)N[C@@H](Cc1c[nH]c2ccccc12)C(=O)N[C@@H](Cc1c[nH]c2ccccc12)C(=O)N[C@@H](CCCNC(=N)N)C(=O)N[C@@H](CS)C(=O)N[C@@H](CCCNC(=N)N)C(=O)N[C@@H](CC(C)C)C(N)=O [Peptide C10-Turg-6, C10- CGRRWGWWRC RL-NH2] (Decanoyl-CGRRWGWWRCRL-NH2) | 8 | 16 | – | 16 | – | – | 23 | 23 | 128 | 64 | 128 | – | 1 | – | – | 21 | 16 | 45 | 102 | 1
CCCCCCCCCCCC(=O)N[C@@H](CS)C(=O)NCC(=O)N[C@@H](CCCNC(=N)N)C(=O)N[C@@H](CCCNC(=N)N)C(=O)N[C@@H](Cc1c[nH]c2ccccc12)C(=O)NCC(=O)N[C@@H](Cc1c[nH]c2ccccc12)C(=O)N[C@@H](Cc1c[nH]c2ccccc12)C(=O)N[C@@H](CCCNC(=N)N)C(=O)N[C@@H](CS)C(=O)N[C@@H](CCCNC(=N)N)C(=O)N[C@@H](CC(C)C)C(N)=O [Peptide C12-Turg-6, C12- CGRRWGWWRC RL-NH2] (Lauroyl-CGRRWGWWRCRL-NH2) | 16 | 16 | – | 16 | – | – | 32 | 32 | 128 | 64 | >128 | – | 2 | – | 1 | 39 | 19 | – | – | –
